Reference: patent US20030170656A1, “Method of screening for factors that modulate gene expression” (Chiron Corporation, priority 1995, published 2003)

B1: 16.1: 61 amino acid polypeptide of SEQ ID NO. 2, deconvoluted from pool 16.1, capable of inducing c-fos transcription in NIH3T3 cells (protein)
chain: MTLMVFKCSDNLLLIVVYAKVFPSTSCIHYQIYTCKFEVLLFSQHELKIFCNSARQGSSCL

Columns and labels:
Format in all cases: cell-based
c-fos mRNA in FTL cells = test: bDNA assay against c-fos mRNA in NIH3T3 derived FTL cells
Method: To assay for a growth factor that stimulates the expression of the c-fos gene, NIH3T3 derived FTL cells were selected as the responsive cells. A library for screening is prepared from human tissue as described above for expression in Xenopus oocytes. Plasmid DNAs from small library pools of 100 to 500 independent colonies per pool were constructed and in vitro transcribed into cRNAs. Each pool of cRNAs were injected into Xenopus laevis oocytes and cultured at 18° C. overnight. The next day, each oocyte was then cocultured on a bed of NIH3T3 derived FTL cells in a microwell and incubated at 37° C. for three hours.
The oocytes were removed and induction of c-fos messenger was measured by bDNA assay against c-fos mRNA. […] In the present experiment, a bDNA assay detected a lower concentration of library, with the ability to detect from 4000 FTL cells less than 0.01 nM of PDGFBB (PDGF β chain dimer). As previously described, administration of PDGFBB to cells, including FTL cells, induces the transcription of the c-fos gene.

[1] = system: luciferase mRNA (SRE-luciferase construct) in FTL cells; test: bDNA assay against luciferase mRNA in SRE-luciferase FTL cells; conditions: 4000 cells
Method: (§1) A construct comprising in operable linkage a luciferase reporter gene and the serum responsive element (SRE) was stably transfected into NIH3T3 derived FTL cells which were selected as the responsive cells. Plasmid DNAs from small library pools of 100 to 500 independent colonies per pool were constructed and in vitro transcribed into cRNAs. Each pool of cRNAs were injected into Xenopus laevis oocytes and cultured at 18° C. overnight. The next day, each oocyte was then cocultured with FTL cells transfected with the SRE-luciferase construct and incubated at 37° C. for three hours in a microwell. The oocytes were removed and induction of luciferase gene was assayed by luciferase assay, and also by bDNA assay against luciferase mRNA. The luciferase assay was sensitive to 4000 cells with a minimum concentration of 1 nM of PDGFBB (PDGF β chain dimer). The bDNA assay detected a lower concentration of library, with the ability to detect from 4000 cells less than 0.01 nM of PDGFBB.

[2] = system: serum responsive element (SRE)-luciferase construct in FTL cells; test: SRE-luciferase reporter assay (luciferase assay) in NIH3T3 derived FTL cells; conditions: 4000 cells
Method: as §1

[3] = system: c-fos mRNA in NIH3T3 cells; test: c-fos induction by bDNA assay in NIH3T3 cells (small molecule pool screen with PDGFBB); conditions: bDNA against c-fos mRNA, read-out: concentration giving 50% of maximal c-fos induction
Method: Small molecule library pools are prepared as described above, and 48 such pools were marked and divided for screening. An aliquot of each pool (2 μM final concentration) was placed in a micro-well on a bed of NIH3T3 cells in a microwell and incubated at 37° C. for 45 minutes with 1 ηM PDGFBB.
Each well was assayed by induction of c-fos messenger by bDNA assay against c-fos mRNA. In a previous study (described in example 8), a bDNA assay detected induction of c-fos mRNA by less than 0.01 ηM of PDGFBB (PDGF β chain dimer). 1 ηM of PDGFBB gives 50% of maximal c-fos induction. As previously described, administration of PDGFBB to cells, including FTL cells, induces the transcription of the c-fos gene.
In this study, induction or reduction of the c-fos gene was measured by bDNA. Where an agonist was present in the small molecule library pool, c-fos induction was expected to occur at about the same level or greater as induction by administration of PDGFBB. Where an antagonist was present in the small molecule library pool, c-fos transcription was expected to be reduced perhaps to non-detectable levels. […]

[4] = system: c-fos transcription in NIH3T3 cells; test: Xenopus oocyte/NIH3T3 coculture, c-fos induction by bDNA assay; conditions: compared to non-stimulated NIH3T3 cells
Excerpt: Manual defolliculated Xenopus oocytes are excellent at expressing in vitro transcribed cRNA and its background c-fos induction activity is almost none. Taking advantage of the size of Xenopus oocytes, a coculture system using Xenopus oocytes and NIH3T3 cells was developed in microplates which allowed the detection of both diffusible and membrane-attached nondiffusible growth factors. However, it was shown that damaged oocytes produce significant c-fos induction in NIH3T3 cells. A repeatable condition was established, however, which was sensitive enough to detect PDGF c-sis activity secreted from an oocyte injected with 0.08 ng of PDGF c-sis cRNA. This sensitivity was shown allowing for detection of PDGF c-sis activity in a pool of 600 clones. Screening was then conducted of 350 pools of a mouse brain cDNA library with a diversity of an average of 150 clones per pool, and 100 pools of a Xenopus embryo library with a diversity of 80 clones per pool. Considering the biological variation between oocytes, each pool of cRNA was injected into three oocytes and subsequently yielded triplicate results.
Among these 450 pools, 61 pools were initially found positive. After multiple repeated experiments, 14 remained moderately positive. […] The nucleotide and translated protein sequence for clone 16.1 was determined, and is represented in SEQ ID NO. […]

| Molecule | concentration detectable by bDNA assay against c-fos mRNA (c-fos mRNA in FTL cells; 4000 FTL cells) | concentration inducing c-fos mRNA detected by bDNA assay (c-fos mRNA in FTL cells; as restated in Example 9 from Example 8) | concentration detectable by bDNA assay against luciferase mRNA [1] | minimum concentration detected by luciferase assay [2] [nM] | EC50 [3] [nM] | induction of c-fos transcription [4] [fold] | induction of c-fos transcription ([4]; listed as SEQ ID NO. 2) |
| --- | --- | --- | --- | --- | --- | --- | --- |
| PDGFBB: PDGF β chain dimer | less than 0.01 nM | less than 0.01 ηM | less than 0.01 nM | 1 | 1 | – | – |
| B1 | – | – | – | – | – | 5 | about 5 fold |
